In patent US10155798B2, “Anti-obesity compounds derived from neuromedin U” (The Regents of the University of California, priority 2013, dated 2018):
*1 amine or outer side, *2 acyl side, *3 side chain or, on linkers, in order; H or OH if unused. Where a SMILES comes first, the peptide text is derived from it. Bridges are numbered along the chain shown (N, C = ends). [ ]: non-standard residue; d: D form. The star is where a group is joined. mXylylene(5-CH2SC16H33) = CCCCCCCCCCCCCCCCSCc1cc(C[*:1])cc(C[*:2])c1; X1 = CCCCCCCCCCCCCCCCN(CCCCCCCCCCCCCCCC)CCCCCC(=O)*; Tic = O=C(O)[C@@H]1Cc2ccccc2CN1; Aib = CC(C)(N)C(=O)O; Ahx = NCCCCCC(=O)O

Columns and labels:
[1] = Body distribution of NM4A in chronically treated animals; format: in vivo, mouse; details: 2.2 mg/kg every 2 days for 28 days
Method: (§1) FIG. 7. (A) Abdominal fat evaluation of chronically treated animals. Ad libitum fed male DIO C57BL/6 mice were treated with either vehicle or NM4A (2.2 mg/kg; 1603 nMole/kg) every 2 days or NM4A (2.2 mg/kg; 1603 nMole/kg) every 4 days or ^(*)NM4-C16 (2.6 mg/kg; 1603 nMole/kg) every 7 days for 21 days. Subsequently, their abdominal fat was harvested and weighted. Results are expressed as % of abdominal fat per total body weight. (B) Distribution of NM4A in NM4A chronically treated animals (2.2 mg/kg; every 2 days for 28 days).
To test body distribution of NM-analogs we performed also limited ADME studies in animals that underwent chronic treatment with NM4A every 2 days for 28 days (2.2 mg/kg; 1603 nMole/kg dose).
Ad libitum fed male DIO C57BL/6 mice that underwent chronic treatment with NM4A (2.2 mg/kg; 1603 nMole/kg; dosing every 2 days for 28 days) were sacrificed and their organs/tissues harvested and weighted. […] Obtained homogenate(s) were transferred to 1.5 mL Eppendorf tubes and centrifuged for 10 min at 13000 rpm.

Water solubility = format: physicochemical
male DIO C57BL/6 mice [2] = assay: Abdominal fat evaluation of chronically treated animals; format: in vivo, mouse; details: chronic treatment 21 days, 1603 nMole/kg; vehicle ~8%
Method: as §1
For three groups of animals treated every 2, 4 and 7 days we also performed abdominal fat evaluation (FIG. 7A).

[3] = biological target: T1, NMUR2 (neuromedin U 2 receptor) (Homo sapiens, UniProt Q9GZQ4); assay: Calcium mobilization assay, HEK-NMU2 cells; format: cell-based; details: HEK293 cells expressing NMU2 receptor, NA = not active
T1 construct: expressed in transfected cells; host or cells: HEK293 (HEK-NMU2)
T1 sequence (Q9GZQ4 whole entry): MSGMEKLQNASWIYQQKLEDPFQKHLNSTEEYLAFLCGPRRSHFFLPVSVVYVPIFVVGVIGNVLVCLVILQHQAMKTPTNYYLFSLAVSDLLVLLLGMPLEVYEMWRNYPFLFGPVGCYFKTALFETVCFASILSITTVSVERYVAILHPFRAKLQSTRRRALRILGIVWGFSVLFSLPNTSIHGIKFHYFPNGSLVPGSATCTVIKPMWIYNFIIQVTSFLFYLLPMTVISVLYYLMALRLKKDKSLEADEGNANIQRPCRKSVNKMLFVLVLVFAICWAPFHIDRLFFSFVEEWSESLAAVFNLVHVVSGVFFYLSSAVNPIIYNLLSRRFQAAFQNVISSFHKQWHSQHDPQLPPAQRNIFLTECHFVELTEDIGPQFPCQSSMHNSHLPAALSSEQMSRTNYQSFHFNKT
Method: (§2) To test whether neuromedin U can be modified/derivatized to yield truncated bioactive compound(s) that may be useful as therapeutics, we synthesized a small library (25 peptides) of hNMU analogs utilizing various stabilization protocols, including: cyclization, lipidation, introduction of α,α-disubstituted and N-methylated amino acids, retro-inverso-approach, and combination of such (see Table 1). Subsequently all analogues were tested against human neuromedin U receptors (NMUR1 and NMUR2) in calcium mobilization assay (collaboration with Dr Gary Willars, University of Leicester, UK).
HEK293 cells expressing either the neuromedin U 1 receptor or neuromedin U 2 receptor (HEK-NMU1 and HEK-NMU2 respectively) were grown to approximately 90% confluence in ELISA strip plates (96-well format) pre-coated with poly-D-lysine (0.1% w/v) and loaded for 45 min at 37° C. with 2 iM fluo-4-AM in Krebs'-HEPES buffer with bovine serum albumin (KHB-BSA; composition: 10 mM HEPES; 4.2 mM NaHCO3; 11.7 mM D-glucose; 1.18 mM MgSO4.7H2O; 1.18 mM KH2PO4; 4.69 mM KCl; 118 mM NaCl; 1.3 mM CaCl2.2H2O; 0.1% (w/v) BSA; pH 7.4). Monolayers were then washed and equilibrated for 5 min at 37° C. in 100 il KHB-BSA for subsequent recording of fluorescence as an index of intracellular [Ca^2+] ([Ca^2+]i) using a microplate reader (NOVOstar; BMG LABTECH, Aylesbury, U.K.). Briefly, 20 μl of KHB-BSA, with or without ligand, was added into the well (200 μl/s) and fluorescence determined at 0.5 s intervals by excitation at 485 nm and collection of emitted light at 520 nm. Changes in fluorescence above basal levels (before ligand addition) were determined. […] Fmax was obtained by removal of buffer and addition of KHB-BSA buffer containing 4 mM [Ca^2+] and ionomycin (2 μM) to representative wells and the fluorescence measured for 10 min. Fmin was then derived by replacing buffer with Ca^2+-free KHB-BSA buffer containing 2 mM EGTA and fluorescence measured for 10 min. For the determination of concentration-response relationships, the maximal change in [Ca^2+]i was calculated following ligand addition. Concentration-response curves were then fitted using a four-parameter logistic equation to determine EC50 values (GraphPad Software Inc., Calif.).

[4] = tested on: diet induced obese (DIO) mouse model; assay: Single dose in vivo anorectic experiments in DIO mouse model; details: DIO mice
Description: FIG. 3. Single dose in vivo experiments performed in DIO mouse model. (A) Comparison of anorectic effects of NM4 and NM7. (B) NM4 dose response experiments. (C) Comparison of NM4 and NM4A anorectic activity.
Initially we focused on single dose experiments comparing NM4 and NM7 at 5344 nMole/kg dose (FIG. 3).

male DIO C57BL/6 mice [5] = assay: Chronic in vivo experiments in DIO mice (body weight, food intake, gastric emptying); design: species or system mouse; details: for gastric emptying in experimental animals: s.c. 1603 nMole/kg, chronic regimen
Method: FIG. 4. Anorectic effects of NM4A in chronic in vivo experiments. (A) Ad libitum fed male DIO C57BL/6 mice were treated with either vehicle or NM4A (2.2 mg/kg; 1603 nMole/kg) every 2, 4 or 7 days for 21 days. (B) Ad libitum fed male DIO C57BL/6 mice were treated with either vehicle or NM4A (2.2 mg/kg; 1603 nMole/kg) once a week for 21 days. After initial treatment animals were kept either on high-fat diet (FD) or normal diet (ND).
FIG. 6. (A) Comparison of anorectic effects of NM4A & NM4-C16 analogs in chronic in vivo experiments. Ad libitum fed male DIO C57BL/6 mice were treated with either vehicle or NM4A (2.2 mg/kg; 1603 nMole/kg) or NM4-C16 (2.6 mg/kg; 1603 nMole/kg) every 7 days for 21 days. (B) Food intake of animals treated with NM4-C16 (2.6 mg/kg; 1603 nMole/kg) every 7 days for 21 days.
NM4A was characterized further in in vivo chronic experiments. Ad libitum fed male DIO C57BL/6 mice, which were kept on the high fat diet (Cat #D12492, Research Diets, Inc., New Brunswick, N.J.), were treated subcutaneously (s.c.) with either vehicle or NM4A (2.2 mg/kg; 1603 nMole/kg) either every 2, 4 or 7 days for 21 days. […] To determine whether NM4A can be used as an auxiliary in dieting of the obese subjects we tested its efficiency in once weekly regimen at the 2.2 mg/kg dose. In this case, ad libitum fed male DIO C57BL/6 mice were kept either on the high fat diet (FD) or regular diet (ND) during NM4A's administration.
(§3) Despite limited success with our “double-lipidation” approach, we decided to test NM4-C16 analog in vivo using once weekly subcutaneous injection regimen at the 2.6 mg/kg dose, which is equimolar to previously used NM4A dose (e.g. 1603 nMole/kg).
All animal experiments were approved by the UCLA Animal Care and Use Committee (ARC #1999-173-23) and conformed to local and national guidelines. Ad libitum fed male DIO C57BL/6 mice (n=8 per group) kept on D12492, a high-fat diet composed of 60% Kcal from fat (Research Diets, Inc., New Brunswick, N.J.) were weighed and individually dosed (s.c., 30 min prior to the onset of the dark phase of the light cycle) with either vehicle or NM4A (2.2 mg/kg; 1603 nMole/kg) every 2 days or NM4A (2.2 mg/kg; 1603 nMole/kg) every 4 days or NM4A (2.2 mg/kg; 1603 nMole/kg) every 7 days or NM4-C16 (2.6 mg/kg; 1603 nMole/kg) every 7 days for 21 days and their food intake and body weight were measured daily. […] Briefly, calculated amount of the desired peptide (1 eq) and 10 equivalents of PUREBRIGHT® SL-220 (1 mg: 10 mg) were solubilized in minimal volume of 90% absolute ethyl alcohol in water. Subsequently solution was aliquoted into Eppendorf tubes and freeze-dried. Obtained solid residue was re-solubilized in the proper amount of PBS directly before use by vortexing.

[6] = biological target: T2, NMUR1 (neuromedin U 1 receptor) (Homo sapiens, UniProt Q9HB89); assay: Calcium mobilization assay, HEK-NMU1 cells; format: cell-based; details: HEK293 cells expressing NMU1 receptor, NA = not active
T2 construct: expressed in transfected cells; host or cells: HEK293 (HEK-NMU1)
T2 sequence (Q9HB89 1-426): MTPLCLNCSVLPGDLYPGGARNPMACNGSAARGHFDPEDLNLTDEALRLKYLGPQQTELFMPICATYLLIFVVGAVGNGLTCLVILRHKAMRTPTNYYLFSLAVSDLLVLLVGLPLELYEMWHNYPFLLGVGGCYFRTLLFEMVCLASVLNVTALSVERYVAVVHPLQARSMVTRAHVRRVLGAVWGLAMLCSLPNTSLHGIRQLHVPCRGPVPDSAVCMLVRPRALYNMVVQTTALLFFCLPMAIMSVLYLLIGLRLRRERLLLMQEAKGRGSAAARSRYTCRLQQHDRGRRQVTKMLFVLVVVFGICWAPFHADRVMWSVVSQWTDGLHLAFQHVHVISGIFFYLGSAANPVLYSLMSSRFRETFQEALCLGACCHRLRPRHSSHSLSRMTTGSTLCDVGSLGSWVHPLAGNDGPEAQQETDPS
Method: as §2
HEK293 cells expressing either the neuromedin U 1 receptor or neuromedin U 2 receptor (HEK-NMU1 and HEK-NMU2 respectively) were grown to approximately 90% confluence in ELISA strip plates (96-well format) pre-coated with poly-D-lysine (0.1% w/v) and loaded for 45 min at 37° C. with 2 iM fluo-4-AM in Krebs'-HEPES buffer with bovine serum albumin (KHB-BSA; composition: 10 mM HEPES; 4.2 mM NaHCO3; 11.7 mM D-glucose; 1.18 mM MgSO4.7H2O; 1.18 mM KH2PO4; 4.69 mM KCl; 118 mM NaCl; 1.3 mM CaCl2.2H2O; 0.1% (w/v) BSA; pH 7.4). Monolayers were then washed and equilibrated for 5 min at 37° C. in 100 il KHB-BSA for subsequent recording of fluorescence as an index of intracellular [Ca^2+] ([Ca^2+]i) using a microplate reader (NOVOstar; BMG LABTECH, Aylesbury, U.K.). […]

male DIO C57BL/6 mice [7] = assay: Hematological parameters of animals treated with NM4-C16; format: in vivo, mouse; details: 2.6 mg/kg every 7 days for 21 days
Method: as §3

Row | SMILES | entry into the brain [1] | tissue with highest content [1] | water solubility (Water solubility) | abdominal fat content (% of abdominal fat per total body weight) (male DIO C57BL/6 mice [2]) [%] | EC50 [3] [nM] | duration of anorectic effects after single dose administration ([4]; 1603 nMole/kg, 2.2 mg/kg) [days] | in vivo activity relative to NM4 ([4]; single dose, FIG. 3C) | body weight, once weekly regimen as auxiliary in dieting (male DIO C57BL/6 mice [5]; 2.2 mg/kg once a week for 21 days, high fat diet (FD) or regular diet (ND)) | anorectic effects, chronic treatment (male DIO C57BL/6 mice [5]; s.c. 2.2 mg/kg every 2 and every 4 days for 21 days, high fat diet) | anorectic effects, chronic treatment, less frequent dosage (male DIO C57BL/6 mice [5]; s.c. 2.2 mg/kg every 7 days for 21 days, high fat diet) | gastric emptying in experimental animals (male DIO C57BL/6 mice [5]) | EC50 [6] [µM] | hematological parameters/blood cell count (male DIO C57BL/6 mice [7]) | body weight, once-weekly administration (male DIO C57BL/6 mice [5]; s.c. 2.6 mg/kg (1603 nMole/kg) every 7 days for 21 days)
1 | CCCCCCCCCCCCCCCCNC(=O)CNCC(=O)NC(C)(C)C(=O)N[C@@H](Cc1ccccc1)C(=O)N[C@@H](CC(C)C)C(=O)N[C@@H](Cc1ccccc1)C(=O)N[C@@H](CCCNC(=N)N)C(=O)N1CCC[C@H]1C(=O)N[C@@H](CCCNC(=N)N)C(=O)N[C@@H](CC(N)=O)C(N)=O [Peptide M4A, Ida^NHPal-Aib-FL-Phe-Arg-Pro-R-Asn] | does not appear to enter the brain effectively | highest content of NM4A is detected in plasma | limited water solubility | ~5 | 6.46 ± 0.89 | ≤ 20 | at least 3.5 times | additional body weight decrease | potent anorectic effects | limited activity | causes initially gastric emptying | – | – | –
2 | CCCCCCCCCCCCCCCCSCc1cc2cc(c1)CSC[C@H](N)C(=O)NCCCCCC(=O)N[C@@H](Cc1ccccc1)C(=O)N[C@@H](CC(C)C)C(=O)N[C@@H](Cc1ccccc1)C(=O)N[C@@H](CCCNC(=N)N)C(=O)N1Cc3ccccc3C[C@H]1C(=O)N[C@@H](CCCNC(=N)N)C(=O)N[C@@H](CC(N)=O)C(=O)NCCCCCC(=O)N[C@H](C(N)=O)CSC2 [NM16, PalS-X(C-Ahx-FL-Phe-Arg-Tic-R-Asn-Ahx-C)] (H-C[Ahx]FLFR[Tic]RN[Ahx]C-NH2; linker 1-11 via mXylylene(5-CH2SC16H33)) | – | – | – | – | – | – | – | – | – | – | – | 3.98 | – | –
3 | CC(C)C[C@H](NC(=O)[C@H](Cc1ccccc1)NC(=O)CCCCCNC(=O)[C@@H](N)CS)C(=O)N[C@@H](Cc1ccccc1)C(=O)N[C@@H](CCCNC(=N)N)C(=O)N1Cc2ccccc2C[C@H]1C(=O)N[C@@H](CCCNC(=N)N)C(=O)N[C@@H](CC(N)=O)C(=O)NCCCCCC(=O)N[C@@H](CS)C(N)=O [NM10, C-Ahx-FL-Phe-Arg-Tic-R-Asn-Ahx-C] (H-C[Ahx]FLFR[Tic]RN[Ahx]C-NH2) | – | – | – | – | 2690 | – | – | – | – | – | – | 3.98 | – | –
4 | CCCCCCCCCCCCCCCCN(CCCCCCCCCCCCCCCC)CCCCCC(=O)NC(C)(C)C(=O)N[C@@H](Cc1ccccc1)C(=O)N[C@@H](CC(C)C)C(=O)N[C@@H](Cc1ccccc1)C(=O)N[C@@H](CCCNC(=N)N)C(=O)N1CCC[C@H]1C(=O)N[C@@H](CCCNC(=N)N)C(=O)N[C@@H](CC(N)=O)C(N)=O [Peptide M4-C16, (c16)2-Ahx-Aib-FL-Phe-Arg-Pro-R-Asn] (X1-[Aib]FLFRPRN-NH2) | – | – | limited water solubility | ~5 | 741 ± 32 | – | – | – | – | – | very limited gastric emptying | – | appears to be normal | sustained weight loss
